This is an account of results in US9700596B2, “Locally released growth factors to mediate motor recovery after stroke” (The Regents of the University of California, priority 2011, dated 2017).

Entries after “also recorded” stand apart in the source; their conditions may differ.

The subject of data set [1] is focal stroke in forelimb motor cortex. Briefly: Grid-walking task (footfaults) after photothrombotic focal stroke. Particulars: for number of forelimb footfaults / function of impaired forelimb, grid-walking: i.p. twice daily from 5 d after stroke for 6 weeks, CX1837 0.33 or 1 mg/kg, CX1739 3 or 30 mg/kg, CFM2 50 μmol/kg, vs stroke plus vehicle. In kind it is in vivo, mouse. The protocol: (§1) Focal stroke was induced by photothrombosis in adult male C57BL/6 mice weighing 20-25 g as previously described (Clarkson et al. (2010) Nature 468: 305-309).
(§2) CX1837 (0.33 and 1 mg/kg) and CX1739 (3 and 30 mg/kg) were dissolved in 30% hydroxypropyl_β-cyclodextran (HPCD) (made 1:1 in 0.9% saline and distilled H2O) and administered intraperitoneally twice daily starting 5 d after stroke for a period of 6 weeks. The AMPAR antagonist CFM2 ([…]) (De Sarro et al. (1999) Eur. J. Pharmacol., 368: 149-159) was administered intraperitoneally twice daily for 6 weeks.
A hyaluronan/heparin sulfate proteoglycan biopolymer hydrogel (Extracel-HP, a.k.a., HYSTEM®-HP; BioTime,) was used to locally deliver TrkB-Fc (5 μg/ml) and human IgG-Fc (antibody and vehicle control) to the periinfarct cortex (Li et al. (2010) Nat. Neurosci. 13: 1496-1504). This hydrogel was chosen because it is composed of naturally occurring brain extracellular matrix constituents; remains liquid for a period after mixing so that it can be injected into the brain through a small, minimally invasive needle; and will gel within the stroke cavity, conforming to the boundaries of this cavity. We have shown that this hydrogel releases small and large proteins for up to 4 weeks from the infarct cavity after stroke. Five days after stroke, 10 μl of Extracel-HP (HYSTEM®-HP), impregnated with TrkB-Fc (5 μg/ml) or human IgG-Fc (vehicle), was injected directly into the stroke infarct cavity using a 30 gauge needle attached to a Hamilton syringe. Extracel-HP was prepared according to the manufacturer's instructions. […]
(§3) Animals were tested once on both the grid-walking and cylinder tasks, 1 week before surgery to establish baseline performance levels. For the reaching task, mice were trained for a period of 14 d and subsequently tested on day 15 to establish a baseline reading. […] Behaviors were scored by observers who were blind to the treatment group of the animals in the study as previously described (Clarkson et al. (2010) Nature 468: 305-309). […]

The conditions of data set [2]: CFM2 50 μmol/kg i.p. bid; cited from earlier work.
Data set [3] concerns focal stroke in forelimb motor cortex. Briefly: Single-pellet skilled-reaching task after stroke. In kind it is in vivo, mouse. Particulars: CFM2 50 μmol/kg i.p. bid from 5 d after stroke. The protocol: For loss-of-function studies assessing CFM2, the single-pellet skilled-reaching task was used (Conner et al. (2005) Neuron 46: 173-179). Before stroke, animals were trained for […] to successfully reach and retrieve 20 mg sugar pellets (Bio-Serv). A three lane Plexiglas reaching apparatus (30 cm deep, 10 cm wide, and 30 cm high for each lane) was constructed to allow simultaneous recording of three animals. Each lane consists of two 5 mm slots situated against the front-right and front-left walls of the chamber to force the mouse the reach for the pellets using either their right or left forepaws. A 5-mm-thick plastic shelf was mounted 15 mm from the floor at the front of the box.
During the training period, mice were fasted to 90% of their body weight and maintained at this level for the full 3 week training period. […]
All mice were fasted the night before testing. Pellets were presented one at a time and reaches were recorded with a Canon VIXIA HV30 video recorder. […] If an animal reached through the slot and obtained/grasped a food pellet and brought the pellet back through the slot, the reach was scored as a success. If an animal knocked the pellet away or dropped the pellet after grasping it, the reach was scored as a miss. The performance of each mouse was scored as follows: percentage success[…](number of successful retrievals/15)*100.

Data set [4] concerns TrkB. Put plainly: TrkB/p-Trk immunoblotting of cortical tissue 7 d after stroke. Type of data set: in vivo, mouse. As to conditions: CX1837 1 mg/kg, CX1739 3 mg/kg, vs stroke plus vehicle. The protocol: (§4) Tissue was collected from around the stroke site from stroke plus vehicle, stroke plus CX1837 (1 mg/kg), and stroke plus CX1739 (3 mg/kg), and control groups 7 d after stroke. Cortical tissue was dissected in a 1 mm radius around the stroke infarct core, including the core itself, and flash frozen on dry ice.
For immunoblotting experiments, protein (10 μg) was loaded onto a 12% SDS-polyacrylamide gel, subjected to electrophoresis, and transferred to a pure nitrocellulose membrane (GE Healthcare). The membrane was blocked in 10% nonfat milk and probed with polyclonal antibodies specific for anti-TrkB (1:1000; Santa Cruz Biotechnology) and anti-p-Trk (1:5000; Santa Cruz Biotechnology). The blots were incubated with peroxidase-labeled anti-rabbit IgG (1:2000; Vector Laboratories) and immunoreactive proteins were visualized using enhanced chemiluminescence (GE Healthcare). β-Actin was used as a loading control (1:5000; Abcam). Optical density (OD) was determined using the NIH ImageJ software. Pixel intensities were converted to OD using the calibration curve of the software, and background-subtracted values were expressed as OD/[…] total protein.

The test system of data set [5] is hilar EPSPs (dentate gyrus of the hippocampus).
Protocol: Male Long-Evans rats (250-350 g) were anesthetized by pentobarbital (60 mg/kg, i.p.) and maintained under anesthesia by pentobarbital infusion (2-4 mg·kg-^1·h^−1). Under anesthesia, animals were placed in a stereotaxic frame and small holes were drilled into the skull of the left hemisphere to allow the positioning of a stimulating electrode (−7.8 to −8.1 AP; 4.2 to 4.4 ML) and a recording electrode (−3.0 to −3.3 AP; 1.6 to 2.2 ML). A monopolar stainless-steel stimulating electrode (175 μm, insulated with Formvar) was lowered into the perforant path together with a platinum/iridium recording electrode (75 μm) into the hilus of the dentate gyms of the hippocampus. The current used to elicit an evoked potential was adjusted to produce a response size 50-60% of the maximal spike-free amplitude. Evoked hilar EPSPs were recorded in response to single-pulse stimulation delivered at a frequency of one pulse per 20 s.
Data acquisition and analysis was performed using commercially available software (NAC and NACSHOW).
Data set [6] deals with focal stroke in forelimb motor cortex. Briefly: Spontaneous-forelimb (cylinder) task after photothrombotic focal stroke. In kind it is in vivo, mouse. As to conditions: i.p. twice daily from 5 d after stroke for 6 weeks; CX1837 0.33 or 1 mg/kg, CX1739 3 or 30 mg/kg; vs stroke plus vehicle. The protocol:
as §1, §2
A hyaluronan/heparin sulfate proteoglycan biopolymer hydrogel (Extracel-HP, a.k.a., HYSTEM®-HP; BioTime,) was used to locally deliver TrkB-Fc (5 μg/ml) and human IgG-Fc (antibody and vehicle control) to the periinfarct cortex (Li et al. (2010) Nat. Neurosci. 13: 1496-1504). […]
as §3

Data set [7] relates to BDNF. Briefly: BDNF ELISA of cortical tissue 7 d after stroke. Type of data set: in vivo, mouse. Particulars: treatment from day 5, CX1837 1 mg/kg, CX1739 3 mg/kg, vs stroke plus vehicle. The protocol: as §4
Equal volumes of tissue were homogenized in […] of homogenization buffer [Complete Protease Inhibitor Tablet (Invitrogen), 1 mM phenylmethylsulfonylfluoride, 50 mM Tris-HCl, 5 mM EDTA, 10 mM EGTA, 1% Triton X-100] for ˜1 min. Tissue and homogenization buffer were incubated on ice for 30 min, followed by a 5 min spin at 14,000 rpm. The supernatant was collected and total protein concentrations were determined using the DC Protein Assay (Bio-Rad). BDNF was measured using the BDNF ELISA Emax Immunoassay System (Promega) as per the manufacturer's instructions. BDNF levels were determined relative to a standard curve constructed from measures of kit-supplied BDNF protein standards (0-500 pg of BDNF protein) that were assayed simultaneously with the experimental samples. BDNF levels are expressed as picograms of BDNF per 100 μg of sample protein.

Regarding `COc1cc2c(cc1OC)C(c1ccc(N)cc1)=NNC(=O)C2` [CFM2], the “number of forelimb footfaults / function of impaired forelimb, grid-walking” value in data set [1] is reported as “significant impairment in the normal gain of motor function; also recorded: significant increase in the number of footfaults”. Further, the “general behavioral side effects (reduced motor activity, impaired grooming, weight loss)” value in data set [2] is on record as “did not produce general behavioral side effects”. Moreover, the “successful pellet retrieval with impaired right forelimb” value in data set [3] is on record as “significant impairment in the ability to retrieve pellets successfully out to 2 weeks after stroke; also recorded: decrease in the number of pellets successfully retrieved”.
With `CN(C(=O)c1ccc2nonc2c1)C1CCOCC1` [CX1739], the “TrkB phosphorylation in periinfarct cortex” value in data set [4] is “did not change the level of TrkB phosphorylation”. In addition, in data set [1], the “number of forelimb footfaults / function of impaired forelimb, grid-walking” value was “small decrease in the number of footfaults; also recorded: small yet non-significant decrease in the number of footfaults”. For the same molecule, the “excitability ceiling of the EPSP amplitude effect (dose)” value in data set [5] (i.p., anesthetized rats) stood at 10 mg/kg. For the same molecule, the “crossing of the blood-brain barrier when given systemically” value in data set [5] (rat, in vivo, ip) was “cross the blood-brain barrier”. Further, in data set [6], the “forelimb asymmetry (left/right ratio), cylinder task” value is recorded as “small increase in the use of the right-impaired forelimb; also recorded: did not result in a decrease in the left/ratio”. Further, in data set [7], the “BDNF levels in periinfarct cortex” value is reported as “did not change the level of BDNF expression”.

B1: brain derived neurotrophic factor (protein)
chain: HSDPARRGELSVCDSISEWVTAADKKTAVDMSGGTVTVLEKVPVSKGQLKQYFYETKCNPMGYTKEGCRGIDKRHWNSQCRTTQSYVRALTMDSKKRIGWRFIRIDTSCVCTLTIKRGR
notes: growth factor, delivered through HYSTEM-C from 7 days after stroke
Regarding B1, the “forelimb footfaults / functional recovery with hydrogel-delivered BDNF” value in data set [1] (injected 7 days after stroke, 4 weeks after injection, 5 weeks after stroke) was “significant improvements in functional recovery”.
